Assay results as given in the NIST ThermoML archive (doi:10.1016/j.jct.2017.11.007).
Numbers after ± are expanded uncertainties.

Assay: mn = molality of the nth substance listed, in mol/kg
Conditions: 74.66 kPa, Liquid; for speed of sound: Frequency=3 MHz, Single path-length method; for mass density: Vibrating tube method

Cc1cc(C)nc([N-]S(=O)(=O)c2ccc(N)cc2)n1.[Na+] + O
Conditions | mass density [kg/m3] | speed of sound [m/s]
278.15 K, m1 = 0.00501 | 1000.54 ± 0.11 | 1427.9 ± 1.2
278.15 K, m1 = 0.00799 | 1000.88 ± 0.11 | 1428.7 ± 1.2
278.15 K, m1 = 0.01 | 1001.11 ± 0.11 | 1429.2 ± 1.2
278.15 K, m1 = 0.01488 | 1001.67 ± 0.11 | 1430.3 ± 1.2
278.15 K, m1 = 0.01983 | 1002.23 ± 0.11 | 1431.3 ± 1.2
278.15 K, m1 = 0.02501 | 1002.81 ± 0.11 | 1432.3 ± 1.2
278.15 K, m1 = 0.02961 | 1003.34 ± 0.11 | 1433.5 ± 1.2
278.15 K, m1 = 0.03503 | 1003.95 ± 0.11 | 1434.6 ± 1.2
278.15 K, m1 = 0.0401 | 1004.52 ± 0.11 | 1435.7 ± 1.2
278.15 K, m1 = 0.04493 | 1005.06 ± 0.11 | 1436.6 ± 1.2
278.15 K, m1 = 0.04993 | 1005.63 ± 0.11 | 1437.7 ± 1.2
278.15 K, m1 = 0.05504 | 1006.2 ± 0.11 | 1438.8 ± 1.2
278.15 K, m1 = 0.05966 | 1006.73 ± 0.11 | 1439.9 ± 1.2
283.15 K, m1 = 0.00501 | 1000.27 ± 0.11 | 1448.8 ± 1.2
283.15 K, m1 = 0.00799 | 1000.6 ± 0.11 | 1449.4 ± 1.2
283.15 K, m1 = 0.01 | 1000.83 ± 0.11 | 1449.9 ± 1.2
283.15 K, m1 = 0.01488 | 1001.37 ± 0.11 | 1450.9 ± 1.2
283.15 K, m1 = 0.01983 | 1001.92 ± 0.11 | 1451.9 ± 1.2
283.15 K, m1 = 0.02501 | 1002.5 ± 0.11 | 1452.9 ± 1.2
283.15 K, m1 = 0.02961 | 1003.01 ± 0.11 | 1453.9 ± 1.2
283.15 K, m1 = 0.03503 | 1003.61 ± 0.11 | 1455 ± 1.2
283.15 K, m1 = 0.0401 | 1004.18 ± 0.11 | 1456 ± 1.2
283.15 K, m1 = 0.04493 | 1004.71 ± 0.11 | 1456.8 ± 1.2
283.15 K, m1 = 0.04993 | 1005.27 ± 0.11 | 1457.8 ± 1.2
283.15 K, m1 = 0.05504 | 1005.83 ± 0.11 | 1458.8 ± 1.2
283.15 K, m1 = 0.05966 | 1006.35 ± 0.11 | 1459.8 ± 1.2
288.15 K, m1 = 0.00501 | 999.659 ± 0.11 | 1467.2 ± 1.2
288.15 K, m1 = 0.00799 | 999.989 ± 0.11 | 1467.8 ± 1.2
288.15 K, m1 = 0.01 | 1000.21 ± 0.11 | 1468.3 ± 1.2
288.15 K, m1 = 0.01488 | 1000.75 ± 0.11 | 1469.2 ± 1.2
288.15 K, m1 = 0.01983 | 1001.29 ± 0.11 | 1470.1 ± 1.2
288.15 K, m1 = 0.02501 | 1001.86 ± 0.11 | 1471.1 ± 1.2
288.15 K, m1 = 0.02961 | 1002.36 ± 0.11 | 1472 ± 1.2
288.15 K, m1 = 0.03503 | 1002.95 ± 0.11 | 1473 ± 1.2
288.15 K, m1 = 0.0401 | 1003.51 ± 0.11 | 1474 ± 1.2
288.15 K, m1 = 0.04493 | 1004.03 ± 0.11 | 1474.8 ± 1.2
288.15 K, m1 = 0.04993 | 1004.58 ± 0.11 | 1475.7 ± 1.2
288.15 K, m1 = 0.05504 | 1005.14 ± 0.11 | 1476.7 ± 1.2
288.15 K, m1 = 0.05966 | 1005.65 ± 0.11 | 1477.6 ± 1.2
293.15 K, m1 = 0.00501 | 998.758 ± 0.11 | 1483.5 ± 1.2
293.15 K, m1 = 0.00799 | 999.081 ± 0.11 | 1484 ± 1.2
293.15 K, m1 = 0.01 | 999.302 ± 0.11 | 1484.5 ± 1.2
293.15 K, m1 = 0.01488 | 999.834 ± 0.11 | 1485.3 ± 1.2
293.15 K, m1 = 0.01983 | 1000.37 ± 0.11 | 1486.2 ± 1.2
293.15 K, m1 = 0.02501 | 1000.92 ± 0.11 | 1487.1 ± 1.2
293.15 K, m1 = 0.02961 | 1001.42 ± 0.11 | 1487.9 ± 1.2
293.15 K, m1 = 0.03503 | 1002 ± 0.11 | 1488.9 ± 1.2
293.15 K, m1 = 0.0401 | 1002.55 ± 0.11 | 1489.8 ± 1.2
293.15 K, m1 = 0.04493 | 1003.07 ± 0.11 | 1490.5 ± 1.2
293.15 K, m1 = 0.04993 | 1003.61 ± 0.11 | 1491.4 ± 1.2
293.15 K, m1 = 0.05504 | 1004.16 ± 0.11 | 1492.3 ± 1.2
293.15 K, m1 = 0.05966 | 1004.66 ± 0.11 | 1493.2 ± 1.2
298.15 K, m1 = 0.00501 | 997.59 ± 0.11 | 1497.7 ± 1.2
298.15 K, m1 = 0.00799 | 997.912 ± 0.11 | 1498.2 ± 1.2
298.15 K, m1 = 0.01 | 998.128 ± 0.11 | 1498.6 ± 1.2
298.15 K, m1 = 0.01488 | 998.655 ± 0.11 | 1499.4 ± 1.2
298.15 K, m1 = 0.01983 | 999.182 ± 0.11 | 1500.2 ± 1.2
298.15 K, m1 = 0.02501 | 999.733 ± 0.11 | 1501.1 ± 1.2
298.15 K, m1 = 0.02961 | 1000.22 ± 0.11 | 1501.9 ± 1.2
298.15 K, m1 = 0.03503 | 1000.79 ± 0.11 | 1502.8 ± 1.2
298.15 K, m1 = 0.0401 | 1001.34 ± 0.11 | 1503.6 ± 1.2
298.15 K, m1 = 0.04493 | 1001.85 ± 0.11 | 1504.3 ± 1.2
298.15 K, m1 = 0.04993 | 1002.39 ± 0.11 | 1505.2 ± 1.2
298.15 K, m1 = 0.05504 | 1002.93 ± 0.11 | 1506 ± 1.2
298.15 K, m1 = 0.05966 | 1003.42 ± 0.11 | 1506.8 ± 1.2
303.15 K, m1 = 0.00501 | 996.185 ± 0.11 | 1510.1 ± 1.2
303.15 K, m1 = 0.00799 | 996.504 ± 0.11 | 1510.6 ± 1.2
303.15 K, m1 = 0.01 | 996.718 ± 0.11 | 1510.9 ± 1.2
303.15 K, m1 = 0.01488 | 997.238 ± 0.11 | 1511.7 ± 1.2
303.15 K, m1 = 0.01983 | 997.76 ± 0.11 | 1512.4 ± 1.2
303.15 K, m1 = 0.02501 | 998.303 ± 0.11 | 1513.2 ± 1.2
303.15 K, m1 = 0.02961 | 998.79 ± 0.11 | 1514 ± 1.2
303.15 K, m1 = 0.03503 | 999.357 ± 0.11 | 1514.8 ± 1.2
303.15 K, m1 = 0.0401 | 999.892 ± 0.11 | 1515.6 ± 1.2
303.15 K, m1 = 0.04493 | 1000.4 ± 0.11 | 1516.3 ± 1.2
303.15 K, m1 = 0.04993 | 1000.93 ± 0.11 | 1517.1 ± 1.2
303.15 K, m1 = 0.05504 | 1001.47 ± 0.11 | 1517.8 ± 1.2
303.15 K, m1 = 0.05966 | 1001.95 ± 0.11 | 1518.6 ± 1.2
308.15 K, m1 = 0.00501 | 994.563 ± 0.11 | 1520.7 ± 1.2
308.15 K, m1 = 0.00799 | 994.878 ± 0.11 | 1521.2 ± 1.2
308.15 K, m1 = 0.01 | 995.089 ± 0.11 | 1521.5 ± 1.2
308.15 K, m1 = 0.01488 | 995.605 ± 0.11 | 1522.2 ± 1.2
308.15 K, m1 = 0.01983 | 996.12 ± 0.11 | 1523 ± 1.2
308.15 K, m1 = 0.02501 | 996.661 ± 0.11 | 1523.7 ± 1.2
308.15 K, m1 = 0.02961 | 997.14 ± 0.11 | 1524.4 ± 1.2
308.15 K, m1 = 0.03503 | 997.703 ± 0.11 | 1525.2 ± 1.2
308.15 K, m1 = 0.0401 | 998.234 ± 0.11 | 1525.9 ± 1.2
308.15 K, m1 = 0.04493 | 998.733 ± 0.11 | 1526.6 ± 1.2
308.15 K, m1 = 0.04993 | 999.258 ± 0.11 | 1527.3 ± 1.2
308.15 K, m1 = 0.05504 | 999.792 ± 0.11 | 1528 ± 1.2
308.15 K, m1 = 0.05966 | 1000.27 ± 0.11 | 1528.7 ± 1.2
